From patent US11427549B2, “Pyrimidinyloxy benzo-fused compounds as herbicides” (FMC Corporation, priority 2017, dated 2022)

How the values were obtained:
[1] = system: ryegrass, Italian (Italian ryegrass, Lolium multiflorum); assay: Test A postemergence, ryegrass, Italian; type: in vivo; conditions: Lolium multiflorum, post-emergence, 240 h, 0 to 100 scale (0 no effect, 100 complete control), read-out: Plant response rating, Ryegrass, Italian; for pest or weed control at 31 g/ha: 31 g ai/ha; for pest or weed control at 125 g/ha: 125 g ai/ha
[2] = system: wheat (Triticum aestivum); assay: Test A postemergence, wheat; type: in vivo; conditions: Triticum aestivum, post-emergence, 240 h, 0 to 100 scale (0 no effect, 100 complete control), read-out: Plant response rating, Wheat; for plant injury at 31 g/ha: 31 g ai/ha; for plant injury at 125 g/ha: 125 g ai/ha
[3] = system: kochia (Kochia scoparia); assay: Test A preemergence, kochia; type: in vivo; conditions: Bassia scoparia, pre-emergence, 240 h, 0 to 100 scale (0 no effect, 100 complete control), read-out: Plant response rating, Kochia; for pest or weed control at 31 g/ha: 31 g ai/ha; for pest or weed control at 125 g/ha: 125 g ai/ha
[4] = system: barnyardgrass (Echinochloa crus-galli); assay: Test A preemergence, barnyardgrass; type: in vivo; conditions: Echinochloa crus-galli, pre-emergence, 240 h, 0 to 100 scale (0 no effect, 100 complete control), read-out: Plant response rating, Barnyardgrass; for pest or weed control at 31 g/ha: 31 g ai/ha; for pest or weed control at 125 g/ha: 125 g ai/ha
[5] = system: ragweed (common ragweed, Ambrosia elatior); assay: Test A postemergence, ragweed; type: in vivo; conditions: Ambrosia artemisiifolia, post-emergence, 240 h, 0 to 100 scale (0 no effect, 100 complete control), read-out: Plant response rating, Ragweed; for pest or weed control at 31 g/ha: 31 g ai/ha; for pest or weed control at 125 g/ha: 125 g ai/ha
[6] = system: ragweed (common ragweed, Ambrosia elatior); assay: Test A preemergence, ragweed; type: in vivo; conditions: Ambrosia artemisiifolia, pre-emergence, 240 h, 0 to 100 scale (0 no effect, 100 complete control), read-out: Plant response rating, Ragweed; for pest or weed control at 31 g/ha: 31 g ai/ha; for pest or weed control at 125 g/ha: 125 g ai/ha
[7] = system: galium (catchweed bedstraw, Galium aparine); assay: Test A postemergence, galium; type: in vivo; conditions: Galium, post-emergence, 240 h, 0 to 100 scale (0 no effect, 100 complete control), read-out: Plant response rating, Galium; for pest or weed control at 31 g/ha: 31 g ai/ha; for pest or weed control at 125 g/ha: 125 g ai/ha
[8] = system: ryegrass, Italian (Italian ryegrass, Lolium multiflorum); assay: Test A preemergence, ryegrass, Italian; type: in vivo; conditions: Lolium multiflorum, pre-emergence, 240 h, 0 to 100 scale (0 no effect, 100 complete control), read-out: Plant response rating, Ryegrass, Italian; for pest or weed control at 31 g/ha: 31 g ai/ha; for pest or weed control at 125 g/ha: 125 g ai/ha
[9] = system: kochia (Kochia scoparia); assay: Test A postemergence, kochia; type: in vivo; conditions: Bassia scoparia, post-emergence, 240 h, 0 to 100 scale (0 no effect, 100 complete control), read-out: Plant response rating, Kochia; for pest or weed control at 31 g/ha: 31 g ai/ha; for pest or weed control at 125 g/ha: 125 g ai/ha
[10] = system: ducksalad (Heteranthera limosa); assay: Test B flooded paddy test, ducksalad; conditions: Heteranthera limosa, read-out: Plant response rating, Ducksalad (0 to 100 scale, 0 is no effect, 100 is complete control)
[11] = system: barnyardgrass (Echinochloa crus-galli); assay: Test A postemergence, barnyardgrass; type: in vivo; conditions: Echinochloa crus-galli, post-emergence, 240 h, 0 to 100 scale (0 no effect, 100 complete control), read-out: Plant response rating, Barnyardgrass; for pest or weed control at 31 g/ha: 31 g ai/ha; for pest or weed control at 125 g/ha: 125 g ai/ha
[12] = system: corn (Zea mays); assay: Test A postemergence, corn; type: in vivo; conditions: Zea mays, post-emergence, 240 h, 0 to 100 scale (0 no effect, 100 complete control); for Corn plant response rating (crop injury, 0 = no effect, 100 = complete kill) at 31 g/ha: 31 g ai/ha; for Corn plant response rating (crop injury, 0 = no effect, 100 = complete kill) at 125 g/ha: 125 g ai/ha
[13] = system: barnyardgrass (Echinochloa crus-galli); assay: Test B flooded paddy test, barnyardgrass; conditions: Echinochloa crus-galli, read-out: Plant response rating, Barnyardgrass (0 to 100 scale, 0 is no effect, 100 is complete control)
[14] = system: pigweed (Amaranthus retroflexus); assay: Test A postemergence, pigweed; type: in vivo; conditions: Amaranthus retroflexus, post-emergence, 240 h, 0 to 100 scale (0 no effect, 100 complete control), read-out: Plant response rating, Pigweed; for pest or weed control at 31 g/ha: 31 g ai/ha; for pest or weed control at 125 g/ha: 125 g ai/ha
[15] = system: pigweed (Amaranthus retroflexus); assay: Test A preemergence, pigweed; type: in vivo; conditions: Amaranthus retroflexus, pre-emergence, 240 h, 0 to 100 scale (0 no effect, 100 complete control), read-out: Plant response rating, Pigweed; for pest or weed control at 31 g/ha: 31 g ai/ha; for pest or weed control at 125 g/ha: 125 g ai/ha
[16] = system: rice (Oryza sativa); assay: Test B flooded paddy test, rice; conditions: Oryza sativa, read-out: Plant response rating, Rice (0 to 100 scale, 0 is no effect, 100 is complete control)
[17] = system: blackgrass (Alopecurus myosuroides); assay: Test A postemergence, blackgrass; type: in vivo; conditions: Alopecurus myosuroides, post-emergence, 240 h, 0 to 100 scale (0 no effect, 100 complete control), read-out: Plant response rating, Blackgrass; for pest or weed control at 31 g/ha: 31 g ai/ha; for pest or weed control at 125 g/ha: 125 g ai/ha

| SMILES | pest or weed control at 31 g/ha [1] [%] | pest or weed control at 125 g/ha [1] [%] | plant injury at 31 g/ha [2] [%] | plant injury at 125 g/ha [2] [%] | pest or weed control at 31 g/ha [3] [%] | pest or weed control at 125 g/ha [3] [%] | pest or weed control at 31 g/ha [4] [%] | pest or weed control at 125 g/ha [4] [%] | pest or weed control at 31 g/ha [5] [%] | pest or weed control at 125 g/ha [5] [%] | pest or weed control at 31 g/ha [6] [%] | pest or weed control at 125 g/ha [6] [%] | pest or weed control at 31 g/ha [7] [%] | pest or weed control at 125 g/ha [7] [%] | pest or weed control at 31 g/ha [8] [%] | pest or weed control at 125 g/ha [8] [%] | pest or weed control at 31 g/ha [9] [%] | pest or weed control at 125 g/ha [9] [%] | pest or weed control at 250 g/ha [10] [%] | pest or weed control at 31 g/ha [11] [%] | other results |
| --- | --- | --- | --- | --- | --- | --- | --- | --- | --- | --- | --- | --- | --- | --- | --- | --- | --- | --- | --- | --- | --- |
| O=C1Cc2cccc(Oc3ncc(Cl)cn3)c2C(CCC(F)(F)F)O1 (stereo not drawn) [Compound 28, 8-[(5-Chloro-2-pyrimidinyl)oxy]-1,4-dihydro-1-(3,3,3-trifluoropropyl)-3H-2-benzopyran-3-one] | 0 | 0 | 0 | 0 | 0 | 50 | 0 | 60 | 10 | 20 | 0 | 0 | 20 | 60 | 0 | 10 | 20 | 70 | 0 | 0 | pest or weed control at 125 g/ha [11]: 10%; Corn plant response rating (crop injury, 0 = no effect, 100 = complete kill) at 31 g/ha [12]: 10%; Corn plant response rating (crop injury, 0 = no effect, 100 = complete kill) at 125 g/ha [12]: 20%; pest or weed control at 250 g/ha [13]: 0%; pest or weed control at 31 g/ha [14]: 30%; pest or weed control at 125 g/ha [14]: 70%; pest or weed control at 31 g/ha [15]: 10%; pest or weed control at 125 g/ha [15]: 100%; plant injury at 250 g/ha [16]: 0%; pest or weed control at 31 g/ha [17]: 10%; pest or weed control at 125 g/ha [17]: 60% |
| O=C1OCc2cccc(Oc3ncc(Cl)cn3)c2C1CCC(F)(F)F (stereo not drawn) [Compound 29, 5-[(5-Chloro-2-pyrimidinyl)oxy]-1,4-dihydro-4-(3,3,3-trifluoropropyl)-3H-2-benzopyran-3-one] | 0 | 30 | 0 | 10 | 0 | 10 | 0 | 10 | 10 | 30 | 0 | 10 | 20 | 50 | 0 | 0 | 20 | 60 | 0 | 0 | pest or weed control at 125 g/ha [11]: 30%; Corn plant response rating (crop injury, 0 = no effect, 100 = complete kill) at 31 g/ha [12]: 10%; Corn plant response rating (crop injury, 0 = no effect, 100 = complete kill) at 125 g/ha [12]: 30%; pest or weed control at 250 g/ha [13]: 0%; pest or weed control at 31 g/ha [14]: 30%; pest or weed control at 125 g/ha [14]: 70%; pest or weed control at 31 g/ha [15]: 0%; pest or weed control at 125 g/ha [15]: 80%; plant injury at 250 g/ha [16]: 0%; pest or weed control at 31 g/ha [17]: 30%; pest or weed control at 125 g/ha [17]: 30% |
| O=C1CCC(CCCC(F)(F)F)c2c(Oc3ncc(Cl)cn3)cccc21 (stereo not drawn) [Compound 30, 5-[(5-Chloro-2-pyrimidinyl)oxy]-3,4-dihydro-4-(4,4,4-trifluorobutyl)-1(2H)-naphthalenone] | 30 | 30 | 0 | 20 | 0 | 0 | 0 | 40 | 10 | 10 | 0 | 0 | 30 | 80 | 0 | 10 | 10 | 30 | 85 | 20 | pest or weed control at 125 g/ha [11]: 30%; Corn plant response rating (crop injury, 0 = no effect, 100 = complete kill) at 31 g/ha [12]: 30%; Corn plant response rating (crop injury, 0 = no effect, 100 = complete kill) at 125 g/ha [12]: 30%; pest or weed control at 250 g/ha [13]: 20%; pest or weed control at 31 g/ha [14]: 70%; pest or weed control at 125 g/ha [14]: 90%; pest or weed control at 31 g/ha [15]: 10%; pest or weed control at 125 g/ha [15]: 60%; plant injury at 250 g/ha [16]: 0%; pest or weed control at 31 g/ha [17]: 20%; pest or weed control at 125 g/ha [17]: 60% |
